Measured values reported in PMC7863721, “Plasticity of Carbohydrate Transport at the Blood-Brain Barrier” (Frontiers in Behavioral Neuroscience, 2021).

Assays:
[1] = target: T1, Pippin (CG4797); Pippin-3xHA (Drosophila melanogaster, UniProt Q8MLQ7); experiment: […]-sugar uptake into cRNA-injected Xenopus oocytes, net flux over native oocytes; format: cell-based; settings: labelled compound; pH 7.2, 60 min; concentration series; no reliable Km or Vmax obtained
T1 sequence (Q8MLQ7 1-533): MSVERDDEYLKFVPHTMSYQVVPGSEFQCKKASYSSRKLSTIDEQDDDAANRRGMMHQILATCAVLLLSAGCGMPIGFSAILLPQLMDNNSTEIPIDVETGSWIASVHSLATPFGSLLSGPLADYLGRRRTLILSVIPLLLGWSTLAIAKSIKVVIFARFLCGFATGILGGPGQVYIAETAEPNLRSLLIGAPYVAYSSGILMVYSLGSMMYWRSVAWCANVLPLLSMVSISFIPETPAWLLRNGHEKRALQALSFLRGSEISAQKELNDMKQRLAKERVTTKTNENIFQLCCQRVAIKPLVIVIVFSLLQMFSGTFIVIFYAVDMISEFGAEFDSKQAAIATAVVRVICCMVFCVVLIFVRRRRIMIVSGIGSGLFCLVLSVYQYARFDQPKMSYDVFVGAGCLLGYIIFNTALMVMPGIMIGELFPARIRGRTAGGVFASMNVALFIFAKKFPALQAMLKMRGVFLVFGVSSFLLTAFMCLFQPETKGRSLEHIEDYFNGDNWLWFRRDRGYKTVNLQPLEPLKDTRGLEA

[2] = target: T2, MFS3 (Major Facilitator Superfamily Transporter 3); MFS3-3xHA (Drosophila melanogaster, UniProt Q9VPX2); experiment: as above; format: cell-based; settings: labelled compound; pH 7.2, 60 min; concentration series; no reliable Km or Vmax obtained
T2 construct: b38 prints CG4762, apparently a misprint of CG4726
T2 sequence (Q9VPX2 1-512): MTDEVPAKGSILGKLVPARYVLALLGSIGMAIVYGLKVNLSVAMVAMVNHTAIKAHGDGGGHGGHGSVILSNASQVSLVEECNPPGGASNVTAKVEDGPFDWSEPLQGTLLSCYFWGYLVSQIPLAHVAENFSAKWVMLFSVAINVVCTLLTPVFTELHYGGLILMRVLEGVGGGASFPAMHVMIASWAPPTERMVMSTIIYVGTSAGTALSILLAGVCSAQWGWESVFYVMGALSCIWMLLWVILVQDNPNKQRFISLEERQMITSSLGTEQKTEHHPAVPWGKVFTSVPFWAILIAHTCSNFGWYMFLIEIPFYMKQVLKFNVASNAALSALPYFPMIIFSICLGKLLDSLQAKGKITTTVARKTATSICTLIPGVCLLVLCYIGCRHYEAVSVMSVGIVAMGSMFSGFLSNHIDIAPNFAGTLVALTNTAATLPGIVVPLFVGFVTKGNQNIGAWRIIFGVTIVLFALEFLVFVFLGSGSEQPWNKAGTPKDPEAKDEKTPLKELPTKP

Row | SMILES | 14C-sugar uptake into cRNA-injected Xenopus oocytes, net flux over native oocyte [1] | 14C-sugar uptake into cRNA-injected Xenopus oocytes, net flux over native oocyte [2]
1 | OC[C@H]1OC(O)[C@H](O)[C@@H](O)[C@@H]1O (stereo partly shown) [glucose] | both Pippin and MFS3 facilitate uptake of glucose and trehalose efficiently | both Pippin and MFS3 facilitate uptake of glucose and trehalose efficiently
2 | OC[C@H]1O[C@H](O[C@H]2O[C@H](CO)[C@@H](O)[C@H](O)[C@H]2O)[C@H](O)[C@@H](O)[C@@H]1O [trehalose] | both Pippin and MFS3 facilitate uptake of glucose and trehalose efficiently | both Pippin and MFS3 facilitate uptake of glucose and trehalose efficiently
